Measured values reported in patent publication US20250025443A1, “COMPOUNDS AND METHODS FOR TREATING CORONA VIRUSES” (CLEAR CREEK BIO, INC., priority 2021, published 2025).

target: SARS-CoV-2 Papain-Like Protease (PLpro) (Severe acute respiratory syndrome coronavirus 2 (2019-nCoV) (SARS-CoV-2), UniProt P0DTD1); assay: biochemical; details: PLpro IC50, SARS-CoV-2 PLpro enzymatic fluorescence assay

Molecule | IC50 [nM]
Cc1ccc(C2=CCNCC2)cc1C(=O)NC1(c2cccc3ccccc23)CC1 [Compound 399, 2-Methyl-N-(1-(naphthalen-1-yl)cyclopropyl)-5-(1,2,3,6-tetrahydropyridin-4-yl)benzamide] | < 100

same assay, conditions: PLpro enzymatic fluorescence assay; class symbols; read-out: PLpro IC50

Molecule | IC50 [nM]
Cc1ccc(OC[C@@H]2CCN2C)cc1C(=O)NC1(c2cc(-c3ccn(-c4ccccc4)n3)cc3ncccc23)CC1 [Compound 659, (S)-2-Methyl-5-((1-methylazetidin-2-yl)methoxy)-N-(1-(7-(1-phenyl-1H-pyrazol-3-yl)quinolin-5-yl)cyclopropyl)benzamide] | < 100
COc1cc(C2(NC(=O)c3cc(OC[C@@H]4CC[C@@H]5CN(C)CCN54)ccc3C)CC2)c2cccnc2c1 [Compound 784] | < 100
COc1cc(C2(NC(=O)c3cc(OC[C@H]4C[C@H](F)CN4C)ccc3C)CC2)c2ccccc2c1 [Compound 531, 5-(((2R,4S)-4-Fluoro-1-methylpyrrolidin-2-yl)methoxy)-N-(1-(3-methoxynaphthalen-1-yl)cyclopropyl)-2-methylbenzamide] | < 100
(S)-5-(Azetidin-2-ylmethoxy)-2-methyl-N-(1-(7-morpholinoquinolin-5-yl)cyclopropyl)benzamide [Compound 712] | < 100
C=C(c1cc(C2(NC(=O)c3cc(OC[C@@H]4CCN4C)ccc3C)CC2)c2cccnc2c1)C(F)(F)F [Compound 650, (S)-2-Methyl-5-((1-methylazetidin-2-yl)methoxy)-N-(1-(7-(3,3,3-trifluoroprop-1-en-2-yl)quinolin-5-yl)cyclopropyl)benzamide] | < 100
Cc1ccc(OC[C@@H]2CCN2C)cc1C(=O)NC1(c2cc(N3CCOCC3)cc3ncccc23)CC1 [Compound 740, (S)-2-Methyl-5-((1-methylazetidin-2-yl)methoxy)-N-(1-(7-morpholinoquinolin-5-yl)cyclopropyl)benzamide] | < 100
Cc1ccc(OC[C@@H]2CCN2C)cc1C(=O)NC1(c2cc(-c3ccc(CN4CCC(F)(F)C4)s3)cc3ncccc23)CC1 [Compound 805, (S)—N-(1-(7-(5-((3,3-Difluoropyrrolidin-1-yl)methyl)thiophen-2-yl)quinolin-5-yl)cyclopropyl)-2-methyl-5-((1-methylazetidin-2-yl)methoxy)benzamide] | < 100
C=C(C)c1cc(C2(NC(=O)c3cc(OC[C@H](C)N)ccc3C)CC2)c2cccnc2c1 [Compound 734, (S)-5-(2-Aminopropoxy)-2-methyl-N-(1-(7-(prop-1-en-2-yl)quinolin-5-yl)cyclopropyl)benzamide] | < 100
Cc1ccc(OC[C@@H]2CCN2)cc1C(=O)NC1(c2cc(-c3ccn(C)n3)cc3ncccc23)CC1 [Compound 634, (S)-5-(Azetidin-2-ylmethoxy)-2-methyl-N-(1-(7-(1-methyl-1H-pyrazol-3-yl)quinolin-5-yl)cyclopropyl)benzamide] | < 100
CC(=O)c1ncc(-c2cc(C3(NC(=O)c4cc(OC[C@@H]5CCN5C)ccc4C)CC3)c3cccnc3c2)o1 [Compound 806, (S)-N-(1-(7-(2-Acetyloxazol-5-yl)quinolin-5-yl)cyclopropyl)-2-methyl-5-((1-methylazetidin-2-yl)methoxy)benzamide] | < 100
Cc1ccc(OC[C@@H]2CCN2C)cc1C(=O)NC1(c2cc(C3=CCCCC3)cc3ncccc23)CC1 [Compound 663, (S)—N-(1-(7-(Cyclohex-1-en-1-yl)quinolin-5-yl)cyclopropyl)-2-methyl-5-((1-methylazetidin-2-yl)methoxy)benzamide] | < 100
Cc1nnc(-c2cc(C3(NC(=O)c4cc(OC[C@@H]5CCN5)ccc4C)CC3)c3cccnc3c2)o1 [Compound 680, (S)-5-(Azetidin-2-ylmethoxy)-2-methyl-N-(1-(7-(5-methyl-1,3,4-oxadiazol-2-yl)quinolin-5-yl)cyclopropyl)benzamide] | < 100

same assay, conditions: SARS-CoV-2 PLpro enzymatic fluorescence assay; read-out: PLpro IC50

Molecule | IC50 [nM]
Cc1ccc(NC2CNC2)cc1C(=O)NCc1ccc(-c2ccc(CN3CCCC3)s2)cc1 [Compound 116, 5-(Azetidin-3-ylamino)-2-methyl-N-(4-(5-(pyrrolidin-1-ylmethyl)thiophen-2-yl)benzyl)benzamide] | > 5000
C#CC(NC(=O)c1cc(N)ccc1C)c1cccc2ccccc12 (stereo not drawn) [Compound 459, 5-Amino-2-methyl-N-(1-(naphthalen-1-yl)prop-2-yn-1-yl)benzamide] | > 5000
Cc1ccc(OCC2CCN2C)cc1C(=O)NC1(c2c(C(C)C)ccc3ccccc23)CC1 (stereo not drawn) [Compound 457, N-(1-(2-Isopropylnaphthalen-1-yl)cyclopropyl)-2-methyl-5-((1-methylazetidin-2-yl)methoxy)benzamide] | 100 to 1000
Cc1ccc(OCC2CCCN2C)cc1C(=O)NC1(c2cccc3ccccc23)CC1 (stereo not drawn) [Compound 283, 2-Methyl-5-((1-methylpyrrolidin-2-yl)methoxy)-N-(1-(naphthalen-1-yl)cyclopropyl)benzamide] | < 100
Cc1ccc(OC2CCN(C(=O)OC(C)(C)C)CC2)cc1C(=O)N[C@H](C)c1cccc2ccccc12 [Compound 164, (R)-tert-Butyl 4-(4-methyl-3-((1-(naphthalen-1-yl)ethyl)carbamoyl)phenoxy)piperidine-1-carboxylate] | 1000 to 5000
CN[C@@H](C)COc1ccc(C)c(C(=O)NC2(c3cc(OC)cc4ncccc34)CC2)c1 [Compound 560, (S)-N-(1-(7-Methoxyquinolin-5-yl)cyclopropyl)-2-methyl-5-(2-(methylamino)propoxy)benzamide] | < 100
Cc1cc(N)c(OCC2CCN2C)cc1C(=O)NC1(c2cccc3ccccc23)CC1 (stereo not drawn) [Compound 487, 4-Amino-2-methyl-5-((1-methylazetidin-2-yl)methoxy)-N-(1-(naphthalen-1-yl)cyclopropyl)benzamide] | < 100
Cc1cc2c(cc1C(=O)NC1(c3cccc4ccccc34)CC1)N1C(=O)NCC1C2 (stereo not drawn) [Compound 194, 7-Methyl-N-(1-(naphthalen-1-yl)cyclopropyl)-3-oxo-2,3,9,9a-tetrahydro-1H-imidazo[1,5-a]indole-6-carboxamide] | 1000 to 5000
Cc1cc(C2(NC(=O)c3cc(OCCN(C)C)ccc3C)CC2)c2ccccc2c1 [Compound 401, 5-(2-(Dimethylamino)ethoxy)-2-methyl-N-(1-(3-methylnaphthalen-1-yl)cyclopropyl)benzamide] | < 100
Cc1ccc(OCCN(C)C)cc1C(=O)NC1(c2ccccc2OCc2ccccc2)CC1 [Compound 327, N-(1-(2-(Benzyloxy)phenyl)cyclopropyl)-5-(2-(dimethylamino)ethoxy)-2-methylbenzamide] | 1000 to 5000
Cc1ccc(OCC2CCN2C)cc1C(=O)NC1(c2cc(C(N)=O)cc3ccccc23)CC1 (stereo not drawn) [Compound 520, 4-(1-(2-Methyl-5-((1-methylazetidin-2-yl)methoxy)benzamido)cyclopropyl)-2-naphthamide] | < 100
Cc1ccc(OC[C@H](C)N)cc1C(=O)NC1(c2cc(-c3cccs3)cc3ccccc23)CC1 [Compound 539, (S)-5-(2-Aminopropoxy)-2-methyl-N-(1-(3-(thiophen-2-yl)naphthalen-1-yl)cyclopropyl)benzamide] | < 100
Cc1cc2cc(C3COCCN3)[nH]c2cc1C(=O)NC1(c2cccc3ccccc23)CC1 (stereo not drawn) [Compound 260, 5-Methyl-2-(morpholin-3-yl)-N-(1-(naphthalen-1-yl)cyclopropyl)-1H-indole-6-carboxamide] | 100 to 1000
Cc1ccc(OCC2CCCN2)cc1C(=O)NC1(c2cccc3ccccc23)CC1 (stereo not drawn) [Compound 263, 2-Methyl-N-(1-(naphthalen-1-yl)cyclopropyl)-5-(pyrrolidin-2-ylmethoxy)benzamide] | < 100
Cc1ccc(OCCN(C)C)cc1C(=O)NC1(c2cccc(C)c2Br)CC1 [Compound 317, N-(1-(2-Bromo-3-methylphenyl)cyclopropyl)-5-(2-(dimethylamino)ethoxy)-2-methylbenzamide] | 100 to 1000
Cc1ccc(OCCN(C)C)cc1NC(=O)C(C)c1cccc2ccccc12 (stereo not drawn) [Compound 577, N-(5-(2-(Dimethylamino)ethoxy)-2-methylphenyl)-2-(naphthalen-1-yl)propanamide] | > 5000
COc1cc(C2(NC(=O)c3cc(OC[C@@H]4CCCN4)ccc3C)CC2)c2cccnc2c1 [Compound 462, (S)-N-(1-(7-Methoxyquinolin-5-yl)cyclopropyl)-2-methyl-5-(pyrrolidin-2-ylmethoxy)benzamide] | < 100
Cc1ccc(Nc2cn[nH]c2)cc1C(=O)N[C@H](C)c1cccc(-c2ccc(CN[C@H]3CC[C@@H](O)C3)s2)c1 [Compound 140, 5-((1H-Pyrazol-4-yl)amino)-N-((R)-1-(3-(5-((((1S,3R)-3-hydroxycyclopentyl)amino)methyl)thiophen-2-yl)phenyl)ethyl)-2-methylbenzamide] | 1000 to 5000
Cc1ccc(OCC2CCN2C)cc1C(=O)NC1(c2cccc3nc(Cl)ccc23)CC1 (stereo not drawn) [Compound 436, N-(1-(2-Chloroquinolin-5-yl)cyclopropyl)-2-methyl-5-((1-methylazetidin-2-yl)methoxy)benzamide] | < 100
COCC(NC(=O)c1cc([N+](=O)[O-])ccc1C)c1cccc2ccccc12 (stereo not drawn) [Compound 108, N-(2-Methoxy-1-(naphthalen-1-yl)ethyl)-2-methyl-5-nitrobenzamide] | > 5000
C=C(C)c1cc(C2(NC(=O)c3cc(OC[C@@H]4CCN4C)ccc3C)CC2)c2cccnc2c1 [Compound 568, (S)-2-Methyl-5-((1-methylazetidin-2-yl)methoxy)-N-(1-(7-(prop-1-en-2-yl)quinolin-5-yl)cyclopropyl)benzamide] | < 100
Cc1ccc(OCC2CCN2C)cc1C(=O)NC1(c2cccc3c2OCCO3)CC1 (stereo not drawn) [Compound 432, N-(1-(2,3-Dihydrobenzo[b][1,4]dioxin-5-yl)cyclopropyl)-2-methyl-5-((1-methylazetidin-2-yl)methoxy)benzamide] | 100 to 1000
Cc1cc2nc[nH]c2cc1C(=O)N[C@H](C)c1cccc(-c2ccc(CN[C@H]3CC[C@@H](O)C3)s2)c1 [Compound 134, N-((R)-1-(3-(5-((((1S,3R)-3-hydroxycyclopentyl)amino)methyl)thiophen-2-yl)phenyl)ethyl)-5-methyl-1H-benzo[d]imidazole-6-carboxamide] | 100 to 1000
